Results from ChEMBL document CHEMBL1201862, “PubChem BioAssay data set” (2004).
Calls of active or inactive are those of the source.

Experiments:
[1] = viability of HCT116 lacking mutant beta-catenin – cell-based, human colon tumor, dose response (AID 1045); type: functional;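 note: HCT116 colon tumor cells with beta catenin knocked out; cells exposed to compound for 60 hours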
[2] = Luminescence Cell-Based Dose Retest to Confirm Inhibitors of Cancer Stem Cells. [Related pubchem assays (depositor defined):AID2717, AID2721]; type: functional; settings: Homo sapiens
cells [3] = type: functional, cell-based
cells [4] = type: functional, cell-based; remark: listed apart in the source
[5] = target: T1, Trace amine-associated receptor 1 (Homo sapiens, UniProt Q96RJ0); assay: Counterscreen for agonists of the human trace amine associated receptor 1 (hTAAR1): Fluorescence-based cell-based high throughput dose response assay to identify hTAAR1 agonist that also desensitize TAAR1 receptor response.; type: functional
T1 sequence (Q96RJ0 whole entry): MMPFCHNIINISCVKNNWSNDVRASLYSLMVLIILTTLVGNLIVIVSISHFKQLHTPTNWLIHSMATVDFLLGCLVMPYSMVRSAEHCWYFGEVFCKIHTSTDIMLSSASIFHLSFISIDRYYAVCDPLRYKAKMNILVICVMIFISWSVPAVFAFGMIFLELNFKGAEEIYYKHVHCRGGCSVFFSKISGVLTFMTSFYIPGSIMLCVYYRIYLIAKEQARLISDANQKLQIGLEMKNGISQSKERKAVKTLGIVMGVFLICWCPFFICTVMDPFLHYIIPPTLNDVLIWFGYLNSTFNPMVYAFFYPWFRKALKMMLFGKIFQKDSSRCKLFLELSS

[6] = viability of PTEN-deleted HCT116 cells – cell-based, HCT116 PTEN knockout, dose response (AID 1047); type: functional;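 note: HCT116 colon tumor cells with PTEN knocked out; cells exposed to compound for 60 hours before readout; potency for loss of cell viability measured by luminescence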
[7] = target: T1, Trace amine-associated receptor 1; assay: Fluorescence-based cell-based high throughput dose response assay to identify agonists of the human trace amine associated receptor 1 (TAAR1).; type: functional
[8] = target: T2, RNA-binding protein pos-1 (Caenorhabditis elegans, UniProt G5EF15); assay: disruptors of C. elegans POS-1 RNA interaction – biochemical, fluorescence polarization, dose response (AID 1964);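 note: purified POS-1 fused to maltose binding protein made in E. coli; potency of compounds blocking POS-1 binding to fluorescent RNA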
T2 sequence (G5EF15 whole entry): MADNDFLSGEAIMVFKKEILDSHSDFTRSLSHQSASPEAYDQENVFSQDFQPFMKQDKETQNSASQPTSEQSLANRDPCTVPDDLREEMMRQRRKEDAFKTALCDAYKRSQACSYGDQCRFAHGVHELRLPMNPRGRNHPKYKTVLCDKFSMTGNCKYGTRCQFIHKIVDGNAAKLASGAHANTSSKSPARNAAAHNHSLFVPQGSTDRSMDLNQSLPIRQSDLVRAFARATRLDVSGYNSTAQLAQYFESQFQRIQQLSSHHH

[9] = target: T3, Zinc finger protein mex-5 (Caenorhabditis elegans, UniProt Q9XUB2); assay: potency of MEX-5 RNA-binding blockers – biochemical, C. elegans, fluorescence polarization, dose response (AID 1960)
T3 sequence (Q9XUB2 whole entry): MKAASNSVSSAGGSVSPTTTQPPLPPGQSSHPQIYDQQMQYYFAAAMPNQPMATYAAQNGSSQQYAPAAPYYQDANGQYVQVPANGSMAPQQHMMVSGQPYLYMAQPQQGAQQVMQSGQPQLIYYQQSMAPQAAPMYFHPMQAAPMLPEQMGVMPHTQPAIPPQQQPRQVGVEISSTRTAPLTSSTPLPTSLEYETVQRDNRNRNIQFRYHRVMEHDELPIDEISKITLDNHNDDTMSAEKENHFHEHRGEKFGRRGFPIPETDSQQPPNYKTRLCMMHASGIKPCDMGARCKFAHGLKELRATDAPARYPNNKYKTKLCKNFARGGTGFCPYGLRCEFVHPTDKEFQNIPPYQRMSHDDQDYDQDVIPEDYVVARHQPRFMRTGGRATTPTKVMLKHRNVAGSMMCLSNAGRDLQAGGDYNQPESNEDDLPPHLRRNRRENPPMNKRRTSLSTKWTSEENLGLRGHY

[10] = HIV-1 AD8 envelope cell-cell fusion blockers – cherry-pick, dose response (AID 652062); type: functional, cell-based;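 note: luciferase signal from cell-cell fusion driven by HIV-1 clade B AD8 Env; potency is for inhibitors of fusion seen as a drop in luminescence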
[11] = off-target signal loss in HeLa-CEM21 co-culture – HeLa F-luc CTL cells, cherry-picked, counter-screen for HIV-1 Env fusion inhibitor project, dose response (AID 652040); type: functional, cell-based;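 note: potency for signal decrease marking cytotoxic or nonspecific inhibition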
[12] = target: T4, Mannose-6-phosphate isomerase (Homo sapiens, UniProt P34949); assay: MPI inhibition at elevated mannose 6-phosphate – biochemical, fluorescence intensity, high mannose 6-phosphate, primary screen (AID 1220)
T4 sequence (P34949 whole entry): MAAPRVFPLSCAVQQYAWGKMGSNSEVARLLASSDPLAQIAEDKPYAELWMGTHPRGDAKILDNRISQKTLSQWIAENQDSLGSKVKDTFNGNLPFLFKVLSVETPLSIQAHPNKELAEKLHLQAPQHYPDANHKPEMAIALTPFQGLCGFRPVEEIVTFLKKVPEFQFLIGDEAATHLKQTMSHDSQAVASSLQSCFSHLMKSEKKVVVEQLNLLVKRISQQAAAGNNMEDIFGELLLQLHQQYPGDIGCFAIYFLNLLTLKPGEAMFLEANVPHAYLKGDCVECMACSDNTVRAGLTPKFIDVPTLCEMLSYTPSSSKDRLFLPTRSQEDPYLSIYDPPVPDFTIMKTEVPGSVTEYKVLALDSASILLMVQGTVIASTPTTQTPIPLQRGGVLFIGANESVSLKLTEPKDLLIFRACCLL

[13] = target: T5, Ubiquitin-conjugating enzyme E2 N (Homo sapiens, UniProt P61088); type: functional;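 note: Dose-response confirmation in a TR-FRET assay detecting UBC13-driven polyubiquitin chain formation, inhibition measured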
T5 sequence (P61088 whole entry): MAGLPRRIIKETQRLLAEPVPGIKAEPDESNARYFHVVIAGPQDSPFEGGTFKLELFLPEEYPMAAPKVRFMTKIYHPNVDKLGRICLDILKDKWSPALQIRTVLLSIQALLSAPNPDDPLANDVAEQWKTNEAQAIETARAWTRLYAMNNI

[14] = target: T6, Replicative DNA helicase DnaB (Mycobacterium tuberculosis, UniProt P9WMR3); assay: DnaB intein splicing inhibitors, dose response, biochemical, cell-free fluorescence (AID 449749); type: functional
T6 sequence (P9WMR3 whole entry): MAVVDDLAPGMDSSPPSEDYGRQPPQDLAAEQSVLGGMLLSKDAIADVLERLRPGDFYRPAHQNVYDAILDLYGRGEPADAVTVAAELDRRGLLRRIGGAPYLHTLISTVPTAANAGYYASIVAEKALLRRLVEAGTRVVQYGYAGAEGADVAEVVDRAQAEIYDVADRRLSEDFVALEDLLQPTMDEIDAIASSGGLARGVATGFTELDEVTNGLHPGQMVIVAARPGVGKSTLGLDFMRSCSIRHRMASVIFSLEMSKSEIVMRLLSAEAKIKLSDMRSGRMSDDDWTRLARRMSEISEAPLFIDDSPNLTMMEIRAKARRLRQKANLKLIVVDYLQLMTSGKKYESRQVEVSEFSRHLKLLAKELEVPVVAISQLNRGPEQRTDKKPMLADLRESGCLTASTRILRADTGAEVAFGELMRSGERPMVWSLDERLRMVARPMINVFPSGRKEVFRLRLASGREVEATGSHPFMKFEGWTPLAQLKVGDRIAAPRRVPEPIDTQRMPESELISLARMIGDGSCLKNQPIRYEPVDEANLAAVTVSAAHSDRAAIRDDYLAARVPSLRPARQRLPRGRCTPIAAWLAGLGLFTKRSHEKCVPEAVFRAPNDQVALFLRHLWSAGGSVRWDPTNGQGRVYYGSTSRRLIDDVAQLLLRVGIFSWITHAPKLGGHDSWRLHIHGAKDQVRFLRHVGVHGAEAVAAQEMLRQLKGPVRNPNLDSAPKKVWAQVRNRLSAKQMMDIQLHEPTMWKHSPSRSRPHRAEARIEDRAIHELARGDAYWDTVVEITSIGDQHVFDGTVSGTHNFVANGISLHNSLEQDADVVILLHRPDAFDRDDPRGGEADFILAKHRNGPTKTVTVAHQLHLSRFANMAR

H9c2 = assay: cells; type: functional, cell-based; settings: Rattus norvegicus, H9c2, Myocardium;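 note: confirmatory concentration-response retest of ultra-high-throughput screening hits for modulation of myocardial damage; cell death induced by hydrogen peroxide oxidative stress; compound pretreatment for 60 min then peroxide exposure for 2 h; potency is for protecting the cells against peroxide damage rather than for killing them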
Protein RecA = target: T7, Protein RecA (Mycobacterium tuberculosis, UniProt P9WHJ3); assay: Fluorescence Cell-Free Homogeneous Dose Retest to Identify Inhibitors of RecA-Intein Splicing Activity. [Related pubchem assays (depositor defined):AID2097, AID2223, AID489010, AID492950]; type: functional
T7 sequence (P9WHJ3 whole entry): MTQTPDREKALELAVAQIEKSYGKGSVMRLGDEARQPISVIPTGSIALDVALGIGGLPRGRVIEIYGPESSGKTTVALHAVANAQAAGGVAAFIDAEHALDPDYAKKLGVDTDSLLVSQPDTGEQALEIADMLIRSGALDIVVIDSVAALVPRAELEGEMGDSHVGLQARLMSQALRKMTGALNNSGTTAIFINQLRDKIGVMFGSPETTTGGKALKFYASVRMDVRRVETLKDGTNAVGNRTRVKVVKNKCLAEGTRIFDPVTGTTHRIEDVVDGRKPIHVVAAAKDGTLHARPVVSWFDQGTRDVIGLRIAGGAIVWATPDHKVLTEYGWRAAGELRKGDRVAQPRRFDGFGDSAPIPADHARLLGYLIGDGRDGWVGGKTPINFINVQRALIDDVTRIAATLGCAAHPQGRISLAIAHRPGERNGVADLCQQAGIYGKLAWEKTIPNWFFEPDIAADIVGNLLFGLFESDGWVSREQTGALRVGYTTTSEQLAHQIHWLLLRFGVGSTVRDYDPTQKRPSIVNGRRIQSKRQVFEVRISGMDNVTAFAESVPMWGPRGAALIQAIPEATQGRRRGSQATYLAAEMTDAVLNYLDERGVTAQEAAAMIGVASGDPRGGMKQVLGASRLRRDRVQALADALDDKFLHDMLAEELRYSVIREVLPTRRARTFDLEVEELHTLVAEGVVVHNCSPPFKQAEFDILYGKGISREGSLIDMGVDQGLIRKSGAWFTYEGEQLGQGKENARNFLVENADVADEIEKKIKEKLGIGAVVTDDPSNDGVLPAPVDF

[15] = blockade of melanocortin 4 receptor signaling – cell-based, plate reader, cherry pick, counter-screen for LGR2 antagonist project, dose response (AID 743444); type: functional;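 note: transfected HEK 293 cells stimulated with alpha-MSH peptide; potency of inhibitors of the alpha-MSH evoked signal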
[16] = blockers of bursicon-stimulated LGR2 cAMP reporter – cell-based, HEK293, CRE-luciferase reporter, cherry pick, set 2, dose response (AID 743343); type: functional;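 note: transfected cells were stimulated with diluted bursicon conditioned medium after compound addition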
Genome polyprotein = Genome polyprotein (dengue virus type 2, UniProt P29990); assay: flavivirus cap methylation enzyme inhibition – biochemical, confirmation dose response, primary screen (AID 588689); type: functional
Sequence of Genome polyprotein (P29990 2492-3391 limits assumed): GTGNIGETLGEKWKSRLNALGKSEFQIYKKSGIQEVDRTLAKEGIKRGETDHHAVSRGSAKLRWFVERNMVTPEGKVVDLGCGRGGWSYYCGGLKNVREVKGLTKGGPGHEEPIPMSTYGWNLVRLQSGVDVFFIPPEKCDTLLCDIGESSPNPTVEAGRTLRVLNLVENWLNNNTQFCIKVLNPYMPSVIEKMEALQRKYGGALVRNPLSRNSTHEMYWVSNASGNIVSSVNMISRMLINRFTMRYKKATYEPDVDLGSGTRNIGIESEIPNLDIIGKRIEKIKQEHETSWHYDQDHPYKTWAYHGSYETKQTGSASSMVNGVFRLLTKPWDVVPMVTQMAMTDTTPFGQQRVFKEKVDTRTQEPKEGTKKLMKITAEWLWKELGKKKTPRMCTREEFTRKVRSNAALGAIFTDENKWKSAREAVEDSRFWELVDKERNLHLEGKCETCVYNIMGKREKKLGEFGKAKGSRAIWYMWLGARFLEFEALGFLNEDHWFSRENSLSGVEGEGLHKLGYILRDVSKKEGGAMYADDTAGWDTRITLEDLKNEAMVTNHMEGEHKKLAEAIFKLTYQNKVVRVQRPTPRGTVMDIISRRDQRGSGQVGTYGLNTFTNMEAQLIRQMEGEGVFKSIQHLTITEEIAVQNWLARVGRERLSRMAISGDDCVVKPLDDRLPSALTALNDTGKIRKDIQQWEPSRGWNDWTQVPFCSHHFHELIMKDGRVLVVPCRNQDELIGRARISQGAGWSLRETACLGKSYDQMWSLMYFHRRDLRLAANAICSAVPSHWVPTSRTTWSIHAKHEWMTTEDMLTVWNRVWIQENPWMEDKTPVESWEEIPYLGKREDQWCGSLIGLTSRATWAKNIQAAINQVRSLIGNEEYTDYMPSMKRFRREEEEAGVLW

SMILES: Cc1cccc(-c2cc3nc(C)cc(N4CC(C)CC(C)C4)n3n2)c1 (centres undefined)
- EC50 [1]: 43.9 µM (active)
- AC50 [2]: 5.01 µM (active)
- IC50 (cells [3]): > 29.9 µM (inactive)
- EC50 (cells [4]): > 29.9 µM (inactive)
- IC50 [5]: > 29.9 µM (inactive)
- EC50 [6]: 27.8 µM (active)
- EC50 [7]: 7.1 µM (active)

SMILES: CCCn1c(O)c(C#N)c(C)c(CN2CCCC(C)C2)c1=O (centres undefined)
- EC50 [8]: > 300 µM (inconclusive)
- IC50 (cells [3]): > 29.9 µM (inactive)
- EC50 [9]: 6.59 µM (active)
- EC50 (cells [4]): > 29.9 µM (inactive)
- IC50 [5]: 13 µM (inactive)
- EC50 [7]: 3.04 µM (active)

SMILES: Cn1c(=O)oc2cc(S(=O)(=O)NCc3ccncc3)ccc21
- AC50 [10]: 17.4 µM (active)
- AC50 [11]: 58.5 µM (active)

SMILES: Cc1nc(NCCc2ccccc2)c2nnn(Cc3ccccc3Cl)c2n1
- IC50 (cells [3]): > 29.9 µM (inactive)
- EC50 (cells [4]): > 29.9 µM (inactive)
- IC50 [5]: 3.51 µM (active)
- EC50 [7]: 0.59 µM (active)

SMILES: CCOc1cc2c(C#N)c(N3CCNCC3)nc(N)c2c(N)n1
- IC50 (cells [3]): > 29.9 µM (inactive)
- IC50 [12]: > 50 µM (not active)
- EC50 (cells [4]): > 29.9 µM (inactive)
- IC50 [13]: > 20 µM (inactive)
- IC50 [5]: 8.23 µM (active)
- EC50 [7]: 5.69 µM (active)

SMILES: CCC(=O)OCCNc1cc(SCCC(=O)OC)c2nonc2c1[N+](=O)[O-]
- IC50 [12]: > 50 µM (not active)
- AC50 [14]: 116 µM (active)
- IC50 (H9c2): 14.5 µM (active)
- EC50 (Protein RecA): 5.12 µM (active)

SMILES: COC(=O)C1=C(C(=O)OC)SC(=C2C(=S)C(C)(C)N(C(=O)C(C)C)c3ccccc32)S1
- IC50 [12]: 7.38 µM (active)

SMILES: Cc1ccc(-c2cc(C(=O)N3CCOCC3)no2)cc1
- AC50 [15]: 2.81 µM (active)
- AC50 [16]: 2.95 µM (active)

SMILES: O=C(NCCc1ccccc1)c1ccc(CS(=O)(=O)Cc2ccccc2F)o1
- IC50 (cells [3]): 17.7 µM (inactive)
- EC50 (cells [4]): > 29.9 µM (inactive)
- IC50 [5]: 5.69 µM (active)
- EC50 [7]: 2.78 µM (active)

SMILES: Cc1cccc(NC2=NCC(=O)N2CCc2ccccc2)c1
- IC50 (cells [3]): > 29.9 µM (inactive)
- EC50 (cells [4]): > 29.9 µM (inactive)
- IC50 [5]: 7.06 µM (active)
- EC50 [7]: 0.866 µM (active)

SMILES: NC(Cc1ccc(F)cc1)c1csc(Nc2ccc(S(N)(=O)=O)cc2)n1 (centres undefined)
- IC50 (cells [3]): > 29.9 µM (inactive)
- EC50 (cells [4]): > 29.9 µM (inactive)
- IC50 [5]: > 29.9 µM (inactive)
- EC50 [7]: 5.18 µM (active)

SMILES: O=C(O)CC1S/C(=N/N=C/c2ccc(-c3ccccc3[N+](=O)[O-])o2)NC1=O (centres undefined)
- IC50 [12]: > 50 µM (not active)
- IC50 (Genome polyprotein): 89 µM (active)
- AC50 [14]: 12.1 µM (active)
- EC50 (Protein RecA): 4.31 µM (active)

SMILES: COc1ccc(O)c(/C=N/c2sc(C)c(C)c2C#N)c1
- IC50 [12]: > 50 µM (not active)
